Source: EP3539562A1, “IMMUNOTHERAPEUTIC PEPTIDES” (Eberhard Karls Universität Tübingen Medizinische Fakultät, priority 2018, dated 2019)
Entries after “also recorded” stand apart in the source; their conditions may differ.

What was measured:
[1] = system: GS8 cells; test: Acute cytotoxicity assay (cell viability, Cell titer blue); assay type: cell-based; conditions: DMSO controls
[2] = system: LN229 cells; test: as above; assay type: cell-based; conditions: Homo sapiens, LN-229, DMSO control
Description: (§1) LN229 and LNZ308 were seeded as 5,000 cells per well in 96 well plates one day before treatment initiation. All treatments were carried out in serum-free DMEM along with their respective controls, and cell viability measured at 72 h post initial treatment (hpt) using Cell titer blue solution (Promega, Madison, USA) as per manufacturer's instructions. The measured values were converted to percentage cell viability by normalizing each treatment to its respective control within the individual regimen.
(§2) The monotherapies with γ-irradiation and MeV effected dose responses as expected (Fig. 9) and in accordance with cell viability observed previously (Fig. 4). The CT-VT-RT initiated synergistic effect was retained when substituting TMZ by lomustine/CCNU. […] The cell viability and dose dependence in the non-synergistic regimens were similar to those previously observed in triple regimens using TMZ (Fig. 5).

[3] = system: LNZ308 cells; test: as above; assay type: cell-based; conditions: Homo sapiens, DMSO control
Description: as §1, §2

[4] = system: IFN-β; test: ELISA of supernatants of treated LNZ308 cells; assay type: cell-based, human; conditions: LNZ308, CT-VT-RT with or without molecular inhibitors (BX795 10 µM, fludarabine 100 µM)
Description: LNZ308 cells were seeded as 3×10^6 cells per dish and treated with different regimens as described above, supernatants were harvested after 96 hpt and concentrated using Amicon Ultra-15 Ultracel-3K centrifugal filters (Merck Millipore, Billerica, USA) with subsequent determination of total protein concentration using Bradford protein assay (Bio-Rad Laboratories). The respective chemokine/cytokine concentrations were determined enzymatically per microgram of total protein using the respective DuoSet ELISA kits according to manufacturer's instructions (R&D Systems, Minneapolis, USA).

[5] = system: phospho-STAT1 (Y701); test: Immunoblot analysis after CT-VT-RT with signalling inhibitors; assay type: cell-based, human; conditions: inhibitor added to CT-VT-RT (BX795 10 µM, fludarabine 100 µM)
Description: Cells of interest were lysed in lysis buffer containing 25 mM Tris hydrochloric acid (Tris-HCI), 120 mM sodium chloride (NaCI), 5 mM ethylenediaminetetraacetic acid (EDTA), 0.5% NP-40 and phosphatase inhibitor cocktails (Sigma Aldrich). Proteins were separated on 4-12% polyacrylamide gels (Thermo Fisher Scientific) followed by transfer to PVDF membranes (Thermo Fisher Scientific). […] Antibody against TRAIL ([…]), LC3A ([…]) and β-tubulin (9F3) were purchased from Cell Signalling (Cell Signalling, Dan-vers, USA) and used at a dilution of 1:1,000. Anti-rabbit and Anti-mouse horseradish peroxidase coupled secondary antibodies were purchased from Abcam and used at a concentration of 1:5,000. TBK1/IKKε inhibitor, BX795 was purchased from Invivogen (Invivogen, San Diego, USA) and used at a concentration of 10 μM.

[6] = system: STAT1; test: qPCR mRNA expression in treated LNZ308 cells; assay type: cell-based, human; conditions: inhibitor applied after CT-VT-RT treatment
Description: RNA extractions were performed using the RNeasy mini kit (Qiagen) and reversely transcribed to cDNA using High-Capacity RNA-to-cDNA kit (Thermo Fisher Scientific) according to manufacturer's instructions. For each qPCR reaction, 20 ng of cDNA were amplified with custom designed primers (Supplementary Table 1) and qPCR Mastermix Plus for SYBR Green (Eurogentec, Liege, Belgium) using the 7500 Fast Real time PCR system (Thermo Fisher Scientific). Relative gene expression was determined using the ΔΔ-CT method versus the housekeeping gene ARF1.

[7] = biological target: T1, interferon regulatory factor 1 (IRF1) (UniProt P10914 1-325); test: proximity ligation assay in LNZ308 cells treated with CT-VT-RT plus fludarabine
T1 sequence (looked up): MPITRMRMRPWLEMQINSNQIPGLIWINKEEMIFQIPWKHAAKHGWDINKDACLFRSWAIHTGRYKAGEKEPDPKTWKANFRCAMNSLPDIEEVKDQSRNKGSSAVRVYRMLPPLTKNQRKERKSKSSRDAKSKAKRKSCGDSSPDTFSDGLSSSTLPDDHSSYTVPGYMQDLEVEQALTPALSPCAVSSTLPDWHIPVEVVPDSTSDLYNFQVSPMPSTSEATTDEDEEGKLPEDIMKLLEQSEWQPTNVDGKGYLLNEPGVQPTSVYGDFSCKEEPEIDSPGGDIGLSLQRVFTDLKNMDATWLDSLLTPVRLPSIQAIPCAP

**Q.** For Cn1nnc2c(C(N)=O)ncn2c1=O [TMZ, temozolomide], which EC50 [1] is on record?
**A.** The EC50 was 250 µM.

**Q.** With O=NN(CCCl)C(=O)NC1CCCCC1 [CCNU, lomustine] as the molecule, how does the EC50 [2] read?
**A.** Its EC50 is 16 µM.

**Q.** What about the EC50 [3] of the same molecule?
**A.** Its EC50 is 45 µM.

**Q.** How did the IFN-β protein [4] turn out when O=C(NCCCNc1nc(Nc2cccc(NC(=O)N3CCCC3)c2)ncc1I)c1cccs1 [BX795] was run?
**A.** The IFN-β protein was “abolished; also recorded: complete loss of IFN-β production”.

**Q.** What about the STAT1 protein phosphorylation [5] of the same molecule?
**A.** The STAT1 protein phosphorylation was “downregulated; also recorded: complete loss of phospho-STAT1 (Y701)”.

**Q.** And the STAT1 transcription [6]?
**A.** Its STAT1 transcription is “downregulated”.

B1: basic leucine zipper transcriptional factor ATF2-like protein (BATF2) (other, UniProt Q8N1L9 1-274, looked up)
chain: MHLCGGNGLLTQTDPKEQQRQLKKQKNRAAAQRSRQKHTDKADALHQQHESLEKDNLALRKEIQSLQAELAWWSRTLHVHERLCPMDCASCSAPGLLGCWDQAEGLLGPGPQGQHGCREQLELFQTPGSCYPAQPLSPGPQPHDSPSLLQCPLPSLSLGPAVVAEPPVQLSPSPLLFASHTGSSLQGSSSKLSALQPSLTAQTAPPQPLELEHPTRGKLGSSPDNPSSALGLARLQSREHKPALSAATWQGLVVDPSPHPLLAFPLLSSAQVHF
**Q.** Does B1 bind [7]?
**A.** Result: binds
